According to article PMC3161871, “Heteroarylketones inhibit astroglial interleukin-6 expression via a STAT3/NF-κB signaling pathway” (Journal of Neuroinflammation, 2011):

Experiments:
[1] = system: IL-6 release from U343 cells; experiment: Dose-dependent stimulation of IL-6 release by OSM in U343 cells (ELISA); format: cell-based, human; details: U343 cells treated 24 h with OSM, ELISA of conditioned medium
Protocol: (§1) The human glioma cell line U343 [34] was maintained in DMEM containing 10% fetal bovine serum and 60 μg/ml gentamycin (Invitrogen, Darmstadt, Germany) at 37°C in a 10% CO2 atmosphere.
Measurements of IL-6 in conditioned medium and murine plasma samples were done by means of human- or murine-specific IL-6 Cytoset kits (Invitrogen, Darmstadt, Germany) according to manufacturer's protocols.
The dose- and time-dependent stimulation of IL-6 expression by OSM in U343 cells is characterized in figure 1. To analyze dose dependence of IL-6 release, U343 cells were treated for 24 hours with various concentrations of OSM followed by measurement of IL-6 protein concentrations in the conditioned medium by a specific ELISA. […] Therefore, all further investigations were performed with 100 ng/ml OSM. The highest dose of 200 ng/ml OSM led to 30-fold increase of IL-6 accumulation in the conditioned media in comparison to vehicle-treated cells.
Figure 1 OSM induces dose- and time-dependent IL-6 expression in human U343 glioma cells. OSM treatment leads to dose-dependent IL-6 release (A). U343 cells were stimulated with different concentrations of OSM as indicated. After 24 hours the conditioned medium was analyzed by IL-6-specific ELISA. […] IL-6 mRNA expression was analyzed by qRT-PCR (dotted line, black triangles) and IL-6 protein release by ELISA (solid line, black squares). […]

[2] = system: IL-6 mRNA expression in U343 cells; experiment: OSM-induced IL-6 mRNA expression in U343 cells (qRT-PCR time course); format: cell-based, human; details: 100 ng/ml OSM
Protocol: as §1
Total RNA of cultured cells and homogenized mouse brain tissue samples was isolated using RNA isolation kit "NucleoSpin RNA II" from Macherey and Nagel. RNA quantity was measured by spectrophotometrical quantification (NanoDrop 2000, Peqlab, Erlangen, Germany). Total RNA (0.5 μg) was transcribed to cDNA using Superscript III and oligo-dT primer (Invitrogen, Darmstadt, Germany). Quantitative real-time PCR was performed with QuantiFast SYBR Green PCR Master mix (Qiagen, Hilden, Germany) using Rotorgene 3000 system (Corbett, Sydney, Australia). Gene expression was normalized to the expression of three reference genes glyceraldehyde 3-phosphate dehydrogenase (GAPDH), glucose-6-phosphate dehydrogenase (G6PDH) and hypoxanthine-guanine phosphoribosyltransferase (HPRT). Primers for PREP (5'-[…]-3'; 5'- […]-3') and IL-6 (5'-AAAGGACGTCACATTGCA-3'; 5'-[…]-3') were designed using the Primer3 Software (http://frodo.wi.mit.edu/). Data were analyzed by Rotorgene 3000 Software version 6.0 by comparative quantitation. The appropriate size of PCR products was confirmed by gel-electrophoresis stained with ethidium bromide.
To analyze the time-course of OSM-induced IL-6 expression, U343 cells were incubated with OSM for different periods of time as indicated in figure 1B. Amounts of IL-6 mRNA and protein were subsequently quantified by qRT-PCR and by ELISA, respectively. […] Significant induction of IL-6 protein was detected in the conditioned medium as early as 3 h post stimulation and reaching a maximum at 24 h.
To reveal whether bioactivity of HAK compounds is based on suppression of IL-6 protein biosynthesis or on interference with IL-6 mRNA expression OSM-treated U343 cells were incubated with 20 μM of compound HAK-2 for different periods of time. […] Therefore, it is very likely that the relevant molecular target of HAK compounds is involved in the OSM-induced signal transduction process not earlier than 6 h after onset of the stimulation.
Figure 4 Time course of OSM-induced IL-6 mRNA expression in U343 cells treated with compound HAK-2. […] U343 cells were stimulated with 100 ng/ml OSM and treated with 0.1% DMSO as solvent control (solid line, black triangle) or 20 μM HAK-2 (dashed line, white triangle). Samples were harvested at time points indicated to extract total RNA. IL-6 mRNA expression was analyzed by qRT-PCR. All data points are presented as mean ± SD, and were obtained from experiments carried out in quadruplicate. Statistical analysis were performed between control and HAK-2 samples from same time point. ns, not significant; ***p < 0.001.

## Oncostatin M [OSM, reference compound]
[1]
  EC50 of IL-6 release: 0.0705 ± 0.02268 µg/mL
[2]; 1 h post stimulation
  IL-6 mRNA induction, first peak: 6.5 fold
[2]; 16 h post stimulation
  IL-6 mRNA induction, second peak: 5.5 fold
